Calls of active or inactive are those of the source. The rule behind the calls is not given here.
Assays:
[1] = target: T1, Tyrosine-protein kinase JAK2 (Homo sapiens, UniProt O60674); assay: Inhibition of human JAK2 at 10 uM using poly(Glu:Tyr)(4:1) as substrate preincubated for 20 mins followed by [gamma33P]ATP addition measured after 120 mins by ion exchange filter paper method relative to control
[2] = target: T1, Tyrosine-protein kinase JAK2; assay: Inhibition of human JAK2 using poly(Glu:Tyr)(4:1) as substrate preincubated for 20 mins followed by [gamma33P]ATP addition measured after 120 mins by ion exchange filter paper method
Histone deacetylase 1 = Histone deacetylase 1 (Homo sapiens, UniProt Q13547); assay: Inhibition of HDAC1 (unknown origin) using Arg-His-Lys-Lys(Ac) as substrate preincubated with enzyme followed by substrate addition for 2 hrs and measured for 1.5 hrs at 15 mins time interval by fluorescence assay
[3] = target: T2, Protein deacetylase HDAC6 (Homo sapiens, UniProt Q9UBN7); assay: Inhibition of HDAC6 (unknown origin) using Arg-His-Lys-Lys(Ac) as substrate preincubated with enzyme followed by substrate addition for 2 hrs and measured for 1.5 hrs at 15 mins time interval by fluorescence assay
T2 sequence (Q9UBN7 whole entry): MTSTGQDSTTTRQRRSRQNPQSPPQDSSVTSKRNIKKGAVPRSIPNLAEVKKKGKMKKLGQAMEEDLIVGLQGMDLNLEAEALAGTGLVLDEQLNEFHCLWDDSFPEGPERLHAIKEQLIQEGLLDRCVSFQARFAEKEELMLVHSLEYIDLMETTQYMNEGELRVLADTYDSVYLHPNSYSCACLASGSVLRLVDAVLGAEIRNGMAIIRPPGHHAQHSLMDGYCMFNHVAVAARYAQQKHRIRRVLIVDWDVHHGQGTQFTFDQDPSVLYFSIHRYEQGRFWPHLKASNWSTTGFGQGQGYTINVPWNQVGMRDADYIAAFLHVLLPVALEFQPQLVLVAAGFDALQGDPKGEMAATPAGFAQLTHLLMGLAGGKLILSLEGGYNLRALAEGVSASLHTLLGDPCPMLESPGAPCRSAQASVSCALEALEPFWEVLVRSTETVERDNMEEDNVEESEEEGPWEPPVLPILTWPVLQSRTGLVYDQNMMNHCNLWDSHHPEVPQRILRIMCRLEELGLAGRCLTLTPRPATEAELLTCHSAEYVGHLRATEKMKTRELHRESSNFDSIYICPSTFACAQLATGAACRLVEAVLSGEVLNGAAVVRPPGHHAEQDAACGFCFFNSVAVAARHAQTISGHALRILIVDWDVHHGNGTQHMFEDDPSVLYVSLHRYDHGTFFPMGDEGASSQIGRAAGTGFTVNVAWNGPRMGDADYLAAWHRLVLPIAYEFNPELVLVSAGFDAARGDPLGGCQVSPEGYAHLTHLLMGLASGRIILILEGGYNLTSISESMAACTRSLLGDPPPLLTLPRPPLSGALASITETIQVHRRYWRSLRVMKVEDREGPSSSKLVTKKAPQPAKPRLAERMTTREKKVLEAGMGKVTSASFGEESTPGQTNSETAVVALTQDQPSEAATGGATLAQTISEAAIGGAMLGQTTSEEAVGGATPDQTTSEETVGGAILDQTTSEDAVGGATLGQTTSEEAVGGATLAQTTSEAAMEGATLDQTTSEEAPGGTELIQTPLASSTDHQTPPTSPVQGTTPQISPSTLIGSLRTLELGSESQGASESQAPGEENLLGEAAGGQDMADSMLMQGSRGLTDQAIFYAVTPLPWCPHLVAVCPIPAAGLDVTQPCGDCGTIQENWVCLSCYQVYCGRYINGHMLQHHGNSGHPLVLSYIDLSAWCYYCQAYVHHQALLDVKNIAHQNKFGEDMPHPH

Homo sapiens = species on record: Homo sapiens; assay: Selectivity ratio of IC50 for HDAC1 (unknown origin) to IC50 for HDAC6 (unknown origin)
HCT-116 = assay: Antiproliferative activity against human HCT116 cells after 72 hrs by MTT assay; type: functional, cell-based; conditions: HCT-116, 72 h
MDA-MB-231 = assay: Antiproliferative activity against human MDA-MB-231 cells after 72 hrs by MTT assay; type: functional, cell-based; conditions: MDA-MB-231, 72 h
MCF7 = assay: Antiproliferative activity against human MCF7 cells after 72 hrs by MTT assay; type: functional, cell-based; conditions: MCF7, 72 h
PC-3 = assay: Antiproliferative activity against human PC3 cells after 72 hrs by MTT assay; type: functional, cell-based; conditions: PC-3, 72 h
[4] = Antiproliferative activity against human AC10 cells after 72 hrs by MTT assay; type: cell-based
[5] = Antiproliferative activity against mouse TAMH cells after 72 hrs by MTT assay; type: cell-based
HEL 92.1.7 = assay: cells; type: functional, cell-based; conditions: Homo sapiens, HEL 92.1.7, 72 h
Description: Antiproliferative activity against human HEL 92.1.7 cells after 72 hrs by MTT assay

KMS-12-BM = assay: Antiproliferative activity against human KMS-12-BM cells after 72 hrs by MTT assay; type: functional, cell-based
[6] = Antiproliferative activity against human XG6 cells after 72 hrs by MTT assay; type: functional, cell-based; conditions: XG6, 72 h
[7] = Selectivity index, ratio of CC50 for human AC10 cells to IC50 for human KMS-12-BM cells; type: toxicity; conditions: AC10 cells (CC50) and KMS-12-BM cells (IC50)
[8] = Selectivity index, ratio of CC50 for mouse TAMH cells to IC50 for human KMS-12-BM cells; type: toxicity; conditions: TAMH cells (CC50) and KMS-12-BM cells (IC50)
[9] = Selectivity index, ratio of CC50 for human AC10 cells to IC50 for human XG6 cells; type: toxicity; conditions: AC10 cells (CC50) and XG6 cells (IC50)
[10] = Selectivity index, ratio of CC50 for mouse TAMH cells to IC50 for human XG6 cells; type: toxicity; conditions: TAMH cells (CC50) and XG6 cells (IC50)
[11] = target: T3, Protein deacetylase HDAC6 (Homo sapiens) (UniProt Q9UBN7); assay: Inhibition of HDAC6 in human HEL 92.1.7 cells assessed as increase in acetylated tubulin level at 1 uM after 1 hr by immunoblot analysis; type: cell-based
T3 sequence (whole entry): T2 sequence (Q9UBN7 whole entry)

[12] = target: Histone deacetylase 1/2/3 (Homo sapiens) (UniProt Q13547+O15379+Q92769); assay: Inhibition of HDAC1/HDAC2/HDAC3 in human HEL 92.1.7 cells assessed as increase in acetylated […] level at 1 uM after 1 hr by immunoblot analysis; type: cell-based
[13] = target: T1, Tyrosine-protein kinase JAK2; assay: Inhibition of JAK2 in human HeLa cells assessed as reduction in STAT5 phosphorylation at 15 to 20 uM after 1 hr by immunoblot analysis; type: cell-based
[14] = target: T1, Tyrosine-protein kinase JAK2; assay: Inhibition of JAK2 in human HeLa cells assessed as increase in JAK2 phosphorylation at 15 to 20 uM after 1 hr by immunoblot analysis; type: cell-based
[15] = Selectivity index, ratio of CC50 for human AC10 cells to IC50 for human HCT116 cells; type: toxicity; conditions: AC10 cells (CC50) and HCT116 cells (IC50)
[16] = Selectivity index, ratio of CC50 for mouse TAMH cells to IC50 for human HCT116 cells; type: toxicity; conditions: TAMH cells (CC50) and HCT116 cells (IC50)
[17] = Selectivity index, ratio of CC50 for human AC10 cells to IC50 for human MDA-MB-231 cells; type: toxicity; conditions: AC10 cells (CC50) and MDA-MB-231 cells (IC50)
[18] = Selectivity index, ratio of CC50 for mouse TAMH cells to IC50 for human MDA-MB-231 cells; type: toxicity; conditions: TAMH cells (CC50) and MDA-MB-231 cells (IC50)
[19] = Selectivity index, ratio of CC50 for human AC10 cells to IC50 for human MCF7 cells; type: toxicity; conditions: AC10 cells (CC50) and MCF7 cells (IC50)
[20] = Selectivity index, ratio of CC50 for mouse TAMH cells to IC50 for human MCF7 cells; type: toxicity; conditions: TAMH cells (CC50) and MCF7 cells (IC50)
[21] = Selectivity index, ratio of CC50 for human AC10 cells to IC50 for human PC3 cells; type: toxicity; conditions: AC10 cells (CC50) and PC3 cells (IC50)
[22] = Selectivity index, ratio of CC50 for mouse TAMH cells to IC50 for human PC3 cells; type: toxicity; conditions: TAMH cells (CC50) and PC3 cells (IC50)
Jurkat = assay: Antiproliferative activity against human Jurkat cells after 72 hrs by MTT assay; type: functional, cell-based
[23] = Selectivity index, ratio of CC50 for human AC10 cells to IC50 for human HEL 92.1.7 cells; type: toxicity; conditions: AC10 cells (CC50) and HEL 92.1.7 cells (IC50)
[24] = Selectivity index, ratio of CC50 for mouse TAMH cells to IC50 for human HEL 92.1.7 cells; type: toxicity; conditions: TAMH cells (CC50) and HEL 92.1.7 cells (IC50)
[25] = Selectivity index, ratio of CC50 for human AC10 cells to IC50 for human Jurkat cells; type: toxicity; conditions: AC10 cells (CC50) and Jurkat cells (IC50)
[26] = Selectivity index, ratio of CC50 for mouse TAMH cells to IC50 for human Jurkat cells; type: toxicity; conditions: TAMH cells (CC50) and Jurkat cells (IC50)

Histone deacetylase 1, sequence (Q13547 whole entry): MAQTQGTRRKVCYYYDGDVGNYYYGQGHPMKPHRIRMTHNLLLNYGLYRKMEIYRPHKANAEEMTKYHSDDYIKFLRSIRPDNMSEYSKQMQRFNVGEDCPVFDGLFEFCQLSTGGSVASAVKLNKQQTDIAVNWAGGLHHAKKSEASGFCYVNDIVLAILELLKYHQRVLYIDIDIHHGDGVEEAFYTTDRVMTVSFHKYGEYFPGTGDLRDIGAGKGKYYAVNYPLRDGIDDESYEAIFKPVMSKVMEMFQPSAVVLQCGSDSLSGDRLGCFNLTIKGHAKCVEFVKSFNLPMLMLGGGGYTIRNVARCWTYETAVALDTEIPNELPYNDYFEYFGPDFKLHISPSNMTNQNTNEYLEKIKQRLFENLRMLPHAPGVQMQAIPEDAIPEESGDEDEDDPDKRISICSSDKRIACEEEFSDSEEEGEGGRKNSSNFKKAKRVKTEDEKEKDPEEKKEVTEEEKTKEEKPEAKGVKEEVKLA
T1 sequence (O60674 whole entry): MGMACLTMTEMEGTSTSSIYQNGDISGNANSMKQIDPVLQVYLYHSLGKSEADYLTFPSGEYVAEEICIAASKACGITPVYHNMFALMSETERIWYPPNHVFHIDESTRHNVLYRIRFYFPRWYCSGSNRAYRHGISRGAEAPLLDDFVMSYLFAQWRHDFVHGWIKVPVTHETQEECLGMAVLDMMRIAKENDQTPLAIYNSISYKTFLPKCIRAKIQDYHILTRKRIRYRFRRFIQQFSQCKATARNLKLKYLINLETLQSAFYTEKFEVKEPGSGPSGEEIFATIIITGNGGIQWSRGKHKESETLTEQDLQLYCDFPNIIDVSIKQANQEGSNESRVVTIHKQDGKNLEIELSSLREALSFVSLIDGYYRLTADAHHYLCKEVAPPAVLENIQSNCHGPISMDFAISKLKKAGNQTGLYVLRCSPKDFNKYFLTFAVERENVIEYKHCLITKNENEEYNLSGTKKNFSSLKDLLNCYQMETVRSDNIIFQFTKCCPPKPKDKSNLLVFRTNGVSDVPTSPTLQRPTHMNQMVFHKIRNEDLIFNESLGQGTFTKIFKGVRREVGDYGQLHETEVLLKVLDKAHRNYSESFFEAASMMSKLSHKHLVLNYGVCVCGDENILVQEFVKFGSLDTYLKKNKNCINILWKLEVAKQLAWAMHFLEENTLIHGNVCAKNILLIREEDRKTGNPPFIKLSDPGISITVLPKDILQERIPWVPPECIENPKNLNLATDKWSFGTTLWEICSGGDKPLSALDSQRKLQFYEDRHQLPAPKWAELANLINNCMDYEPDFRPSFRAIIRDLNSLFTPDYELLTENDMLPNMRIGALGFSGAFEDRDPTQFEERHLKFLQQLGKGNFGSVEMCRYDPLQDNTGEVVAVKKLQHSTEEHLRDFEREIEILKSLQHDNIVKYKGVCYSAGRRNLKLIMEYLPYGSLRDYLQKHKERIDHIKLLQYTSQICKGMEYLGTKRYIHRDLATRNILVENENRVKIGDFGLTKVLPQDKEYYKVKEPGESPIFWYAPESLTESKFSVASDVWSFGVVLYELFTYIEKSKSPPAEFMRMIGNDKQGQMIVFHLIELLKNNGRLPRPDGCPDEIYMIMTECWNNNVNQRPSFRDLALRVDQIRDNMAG

Row | SMILES | inhibition [1] | IC50 [2] | IC50 (Histone deacetylase 1) | IC50 [3] | IC50 (HCT-116) | IC50 (MDA-MB-231) | IC50 (MCF7) | IC50 (PC-3) | IC50 (HEL 92.1.7) | IC50 (Jurkat) | CC50 at 72 h [4] | CC50 at 72 h [5] | IC50 (KMS-12-BM) | IC50 [6] | selectivity ratio [7] | selectivity ratio [8] | selectivity ratio [9] | selectivity ratio [10] | further results
1 | CC(=O)Nc1ccc(-c2ccnc(Nc3ccc(NC(=O)CCCCCCC(=O)NO)cc3)n2)cc1 |  | 0.9 nM | 774 nM | 0.1 nM | 1970 nM | 1540 nM | 1090 nM | 3840 nM | 2530 nM |  | 19500 nM | 12.5 µM | 1160 nM | 3.17 µM | 16.8 | 10.8 | 6.16 | 3.95 | Ratio IC50 (Homo sapiens): > 7000; inhibition [11]: Active; inhibition [12]: Active; inhibition [13]: Active; inhibition [14]: Active
2 | CC(=O)Nc1ccc(-c2ccnc(Nc3ccc(OCCCCCCC(=O)NO)cc3)n2)cc1 |  | 23 nM | 145 nM | 3 nM | 990 nM | 1560 nM | 810 nM | 1470 nM | 1510 nM | 1770 nM | 2390 nM | 3.66 µM | 100 nM | 2.08 µM | 23.9 | 36.6 | 1.15 | 1.76 | selectivity ratio [15]: 2.41; selectivity ratio [16]: 3.7; selectivity ratio [17]: 1.53; selectivity ratio [18]: 2.35; selectivity ratio [19]: 2.95; selectivity ratio [20]: 4.52; selectivity ratio [21]: 1.63; selectivity ratio [22]: 2.49; selectivity ratio [23]: 1.58; selectivity ratio [24]: 2.42; selectivity ratio [25]: 0.89; selectivity ratio [26]: 2.07
3 | CC(=O)Nc1ccc(-c2ccnc(Nc3cccc(OCCCCCCC(=O)NO)c3)n2)cc1 |  | 3.6 nM | 83 nM | 1.8 nM | 660 nM | 1760 nM | 2420 nM | 1890 nM | 970 nM | 1060 nM | 2990 nM | 7.02 µM | 350 nM | 4.69 µM | 8.54 | 20.1 | 0.64 | 1.5 | selectivity ratio [15]: 4.53; selectivity ratio [16]: 10.6; selectivity ratio [17]: 1.7; selectivity ratio [18]: 3.99; selectivity ratio [19]: 1.24; selectivity ratio [20]: 2.9; selectivity ratio [21]: 1.58; selectivity ratio [22]: 3.71; selectivity ratio [23]: 3.08; selectivity ratio [24]: 7.24; selectivity ratio [25]: 2.92; selectivity ratio [26]: 6.65
4 | CC(=O)Nc1ccc(-c2ccnc(Nc3cccc(NC(=O)CCCCC(=O)NO)c3)n2)cc1 |  | 2.6 nM | 384 nM | 4.6 nM | 34100 nM | 14600 nM | 26700 nM | 18600 nM | > 10000 nM | > 10000 nM |  |  |  |  |  |  |  |  | Ratio IC50 (Homo sapiens): 100

Continued, in another order:

Row | inhibition [1] | IC50 [2] | IC50 (Histone deacetylase 1) | IC50 [3] | IC50 (HCT-116) | IC50 (MDA-MB-231) | IC50 (MCF7) | IC50 (PC-3) | IC50 (HEL 92.1.7) | IC50 (Jurkat) | SMILES | CC50 at 72 h [4] | CC50 at 72 h [5] | IC50 (KMS-12-BM) | IC50 [6] | selectivity ratio [7] | selectivity ratio [8] | selectivity ratio [9] | selectivity ratio [10] | further results
5 | 96.4% | 27.4 nM |  |  |  |  |  |  |  |  | CC(=O)Nc1ccc(-c2ccnc(Nc3ccccc3)n2)cc1 |  |  |  |  |  |  |  |  | 
6 | 3.85% |  |  |  |  |  |  |  |  |  | CC(=O)Nc1ccc(-c2ccnc(NCc3ccccc3)n2)cc1 |  |  |  |  |  |  |  |  | 
7 | 6.22% |  |  |  |  |  |  |  |  |  | CC(=O)Nc1ccc(-c2ccnc(NCCc3ccccc3)n2)cc1 |  |  |  |  |  |  |  |  | 
